Measured values reported in the supplement of paper PMC10307832.

Legend:
Experiment in all cases: relative viability (nuclei count vs DMSO), 5 days (fraction); higher = more cells survive
[1] = compound: COc1cc2c(Oc3ccc4[nH]c(C)cc4c3F)ncnc2cc1OCCCN1CCCC1 [Cediranib] + CS(=O)(=O)CCNCc1ccc(-c2ccc3ncnc(Nc4ccc(OCc5cccc(F)c5)c(Cl)c4)c3c2)o1 [Lapatinib] (partner 2 µM)
Outline: (§1)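 Lung cancer cell lines, seeded in 1536-well plates, were treated the following day by pin tool with a single drug or with five library-drug doses (not always all listed) in √10 steps on top of a fixed anchor-drug dose. Cells were fixed and nuclei stained in one step after 5 days, and nuclei were counted. Relative viability is the nuclei count for treated wells divided by that for vehicle wells, reported as medians of duplicate plates.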

[2] = compound: COc1cc2c(Oc3ccc4[nH]c(C)cc4c3F)ncnc2cc1OCCCN1CCCC1 [Cediranib] + O=C(CCCCCCC(=O)Nc1ccccc1)NO [Vorinostat] (partner 1 µM)
Outline: as §1

[3] = compound: Nc1ncn([C@H]2C[C@H](O)[C@@H](CO)O2)c(=O)n1 [Decitabine] + O=C(c1cc(Cc2n[nH]c(=O)c3ccccc23)ccc1F)N1CCN(C(=O)C2CC2)CC1 [Olaparib] (partner 8 µM)
Outline: as §1

[4] = compound: O=C(C[C@H]1NCCC[C@@H]1O)Cn1cnc2cc(Br)c(Cl)cc2c1=O (racemic) [Halofuginone] + Cc1cc(Nc2cc(N3CCN(C)CC3)nc(Sc3ccc(NC(=O)C4CC4)cc3)n2)n[nH]1 [Tozasertib] (partner 0.1 µM)
Outline: as §1

Cell Line | relative viability ([1]; first compound 0.04 µM) | relative viability ([1]; first compound 0.1265 µM) | relative viability ([1]; first compound 0.4 µM) | relative viability ([1]; first compound 1.265 µM) | relative viability ([1]; first compound 4 µM) | relative viability ([2]; first compound 0.04 µM) | relative viability ([2]; first compound 0.1265 µM) | relative viability ([2]; first compound 0.4 µM) | relative viability ([2]; first compound 1.265 µM) | relative viability ([2]; first compound 4 µM) | relative viability ([3]; first compound 0.04 µM) | relative viability ([3]; first compound 0.1265 µM) | relative viability ([3]; first compound 0.4 µM) | relative viability ([3]; first compound 1.265 µM) | relative viability ([3]; first compound 4 µM) | relative viability ([4]; first compound 0.001 µM) | relative viability ([4]; first compound 0.003162 µM) | relative viability ([4]; first compound 0.01 µM) | relative viability ([4]; first compound 0.03162 µM) | relative viability ([4]; first compound 0.1 µM)
NCI-H727 | 0.774 | 0.483 | 0.733 | 0.919 | 0.732 | 0.934 | 0.913 | 1.08 | 1.21 | 1.27 | 0.643 | 0.54 | 0.685 | 0.55 | 0.481 | 0.706 | 0.778 | 0.578 | 0.615 | 0.33
NCI-H358 | 0.478 | 0.666 | 0.454 | 0.419 | 0.466 | 0.689 | 1.05 | 0.638 | 0.705 | 0.648 | 0.27 | 0.182 | 0.165 | 0.1 | 0.106 | 0.107 | 0.0894 | 0.095 | 0.0812 | 0.0809
NCI-H1437 | 0.87 | 0.791 | 0.764 | 0.842 | 1.03 | 0.875 | 0.778 | 0.872 | 0.819 | 0.898 | 0.435 | 0.416 | 0.381 | 0.268 | 0.246 | 0.407 | 0.387 | 0.425 | 0.393 | 0.399
NCI-H441 | – | – | – | – | – | 0.864 | 0.825 | 0.767 | 0.824 | 0.909 | 0.151 | 0.219 | 0.157 | 0.128 | 0.136 | 0.737 | 0.792 | 0.568 | 0.57 | 0.256
EMC-BAC-2 | 0.925 | 0.804 | 0.88 | 0.816 | 0.868 | 0.403 | – | 0.407 | 0.485 | 0.499 | – | 0.405 | 0.371 | 0.298 | 0.294 | 0.329 | 0.248 | 0.276 | 0.242 | 0.162
NCI-H647 | 1.46 | 1.19 | 1.08 | 1.02 | 1.19 | 0.689 | 0.594 | 0.56 | 0.509 | 0.684 | 0.154 | 0.131 | 0.103 | 0.0693 | 0.0747 | 0.441 | 0.324 | 0.267 | 0.171 | 0.0868
CAL-12T | 0.681 | – | 0.614 | 0.676 | 0.877 | 0.942 | 0.808 | 0.772 | 0.701 | 1.05 | 0.438 | 0.412 | 0.257 | 0.266 | 0.227 | 0.354 | 0.279 | 0.352 | 0.305 | 0.262
NCI-H1792 | 0.792 | 0.628 | 0.863 | 0.875 | 0.735 | – | – | – | – | – | 0.211 | 0.288 | 0.148 | 0.0819 | 0.116 | – | – | – | – | –
H3255 | 0.272 | 0.228 | 0.271 | 0.246 | 0.254 | 0.921 | – | 0.706 | – | 0.735 | 0.487 | 0.469 | 0.415 | 0.43 | 0.378 | 0.709 | 0.524 | 0.723 | 0.67 | 0.618
HCC-78 | 1 | 0.703 | 0.634 | 0.662 | 0.695 | 0.45 | 0.367 | 0.443 | 0.499 | 0.49 | 0.458 | 0.433 | 0.382 | 0.272 | 0.241 | 0.491 | 0.422 | 0.503 | 0.347 | 0.427
EBC-1 | 0.252 | 0.206 | 0.213 | 0.226 | 0.202 | – | – | – | – | – | 0.318 | 0.197 | 0.187 | 0.157 | 0.18 | – | – | – | – | –
NCI-H2405 | 1.02 | 1.13 | 1.11 | 1.13 | 1.09 | 0.995 | 0.928 | 0.983 | 1.03 | 1.21 | 0.613 | 0.467 | 0.374 | 0.313 | 0.312 | 0.906 | 0.776 | 0.682 | 0.775 | 0.64
A549 | 0.927 | 1.01 | 0.949 | 0.994 | 0.992 | – | – | – | – | – | 0.15 | 0.112 | 0.049 | 0.0246 | 0.0404 | – | – | – | – | –
NCI-H3122 | 1.05 | 0.985 | 1.01 | 0.98 | 1.05 | 1.02 | – | 0.985 | 1.13 | 1.07 | 0.34 | 0.307 | 0.225 | 0.201 | 0.206 | 0.38 | 0.381 | 0.356 | 0.414 | 0.166
NCI-H1563 | 0.89 | 0.66 | 0.935 | 0.822 | 0.78 | – | – | – | – | – | – | – | – | – | – | – | – | – | – | –
HCC-44 | 0.982 | – | 0.951 | 0.995 | 0.949 | 1.14 | 0.94 | 1.07 | 1.1 | 1.11 | 0.808 | 0.738 | 0.627 | 0.739 | 0.757 | 1.16 | 0.994 | 1 | 0.824 | 0.17
PC-3 [JPC-3] | 0.479 | 0.554 | 0.472 | 0.391 | 0.45 | 0.771 | – | 0.765 | 0.855 | 0.797 | – | 0.762 | 0.368 | 0.465 | 0.455 | 0.863 | 0.872 | 0.863 | 0.874 | 0.856
NCI-H1993 | 0.8 | 0.675 | 0.815 | 0.755 | 0.887 | – | 0.633 | 0.727 | 0.567 | 0.688 | 0.647 | 0.614 | 0.625 | 0.44 | 0.473 | 0.56 | 0.52 | 0.565 | 0.545 | 0.532
LOU-NH91 | 0.818 | 0.788 | 0.807 | 0.676 | 0.761 | 0.898 | 0.696 | 0.873 | 0.823 | 0.857 | 0.667 | 0.742 | 0.649 | 0.577 | 0.601 | 0.7 | 0.791 | 0.642 | 0.705 | 0.576
